This note sets out measurements from patent US11230525B2, “Organic sulfur compound, method for preparing same, and pharmaceutical composition for preventing or treating cancer or an inflammatory disease, containing same as active ingredient” (SOOKMYUNG WOMENS UNIVERSITY INDUSTRY-ACADEMIC COOPERATION …, priority 2016, dated 2022).

The subject of data set [1] is PC-3 cells, human prostate cancer cells. The data set can be described thus: Anticancer activity in prostate cancer xenograft model. It is filed as in vivo, mice. To be noted: 50 mg/kg (SAHA 100 mg/kg) once a day for 16 days, compared with the non-treated group. Here is the method:
Particularly, 9×10^6 PC-3 cells, human prostate cancer cells, were inoculated subcutaneously to the right side of female BALB/c nu/nu mice at 5 weeks of age (Nara Biotech, Seoul, Republic of Korea).
(§1) When the tumor size reached 40-60 mm^3, the mice were randomly grouped (4 mice per group), which were the non-treated group (10% dimethylacetamide, 10% tween 80 and 80% distilled water), the groups treated with the compounds of comparative examples 1 and 2 (Ajoene, 50 mg/kg), the groups treated with the compounds of examples 18 and 32 (50 mg/kg), and the group treated with the positive control SAHA (Vorinostat, 100 mg/kg). The treatment was performed once a day for 16 days in total. During the treatment, the tumor size was measured with a vernier caliper, followed by evaluation according to the following formula: length (mm)×width (mm)×height (mm)/2. The weights were measured regularly.
(§2) Upon completion of the treatment (16 days later), the mice were sacrificed and the tumor weights were measured. All the experiments were performed according to the experiment protocol approved by Institutional Animal care and Use Committee (IACUC), Korea Research Institute of Bioscience and Biotechnology (KRIBB).

Data set [2] has as its system gastric cancer cell line (NUGC-3). Nature of the data set: Cancer proliferation inhibitory activity (SRB, GI50), NUGC-3. To be noted: Homo sapiens, 48 hours. It is filed as cell-based. A digest of the protocol: (§3)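 48 h compound exposure, 0.1–10 μM, 0.1% DMSO control; RPMI 1640/10% FBS, 37 °C, 5% CO2. TCA fix, 0.4% SRB stain, 10 mM Tris (pH 10.5) extraction, OD540; GI50 fitted.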

For another data set, the target named is HDAC 1 (Homo sapiens, UniProt Q13547). The data set can be described thus: HDAC enzyme fluorescence assay, HDAC 1. In kind it is biochemical. The conditions noted are these: recombinant HDAC enzyme, Boc-Lys(acetyl)-AMC. Here is the method: (§4) Particularly, HDAC enzyme analysis was performed based on a uniform fluorescence emission assay. First, the compounds of examples of the present invention or comparative example 1 were diluted at different concentrations, which were treated to the analysis buffer containing 25 mM HEPES (pH 8.0), 137 mM NaCl, 1 mM MgCl2 and 2.7 mM KCL, followed by culture of the recombinant HDAC enzyme. 10 minutes later, Boc-Lys(acetyl)-AMC, the fluorescence inducing substrate, was added thereto, followed by further culture at 37° C. At this time, the concentration of the fluorescence inducing substrate and the culture time were adjusted according to the isotypes of the HDAC enzyme. The reaction was terminated by treating trypsin at room temperature for 20 minutes. The fluorescence intensity was measured using a fluorescence analyzer at an excitation wavelength of 380 nm and an emission wavelength of 460 nm, respectively. The inhibition rate was calculated from the measured fluorescence intensity of each well with comparing to that of the control well. IC50 of the compound was calculated by analyzing the dose-reaction inhibition curve.

For the next data set, the target named is T1, HDAC 8 (Homo sapiens, UniProt Q9BY41).
T1 sequence (Q9BY41 1-377): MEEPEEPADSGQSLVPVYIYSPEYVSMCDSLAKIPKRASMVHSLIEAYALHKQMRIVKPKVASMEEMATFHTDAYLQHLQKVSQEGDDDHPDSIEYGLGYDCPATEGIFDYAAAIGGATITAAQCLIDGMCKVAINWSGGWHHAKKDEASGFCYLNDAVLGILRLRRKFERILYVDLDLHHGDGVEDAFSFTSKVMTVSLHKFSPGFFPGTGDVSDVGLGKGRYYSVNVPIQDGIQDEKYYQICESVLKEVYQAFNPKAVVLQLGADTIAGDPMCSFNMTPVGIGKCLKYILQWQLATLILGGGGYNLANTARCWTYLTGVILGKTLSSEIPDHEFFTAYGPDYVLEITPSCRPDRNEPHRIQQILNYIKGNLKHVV
The data set can be described thus: HDAC enzyme fluorescence assay, HDAC 8. It is filed as biochemical. Also noted: Inhibitory activity (%) HDAC 8: concentration or dose not given beside the values. The conditions noted are these: for Inhibitory activity (%) HDAC 8: (HDAC inhibitory activity of example compound/HDAC inhibitory activity of SAHA) × 100. In short, it runs like this: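 Recombinant HDAC8 preincubated 10 min with compound in 25 mM HEPES pH 8.0, 137 mM NaCl, 1 mM MgCl2, 2.7 mM KCl, then Boc-Lys(acetyl)-AMC added at 37° C (level and time set per isoform). Trypsin development 20 min at room temperature, fluorescence 380/460 nm; activity expressed as percent relative to SAHA reference.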

Data set [3] relates to lung cancer cell line (NCl-H23). The data set can be described thus: Cancer proliferation inhibitory activity (SRB, GI50), NCI-H23. To be noted: Homo sapiens, 48 hours. It is filed as cell-based. In short, it runs like this:
as §3

The test system of data set [4] is renal cancer cell line (ACHN). The data set can be described thus: Cancer proliferation inhibitory activity (SRB, GI50), ACHN. It is filed as cell-based. The conditions noted are these: Homo sapiens, 48 hours. In short, it runs like this: as §3
Data set [5] deals with breast cancer cell line (MDA-MB-231). The data set can be described thus: Cancer proliferation inhibitory activity (SRB, GI50), MDA-MB-231. In kind it is cell-based. The conditions noted are these: Homo sapiens, 48 hours. A digest of the protocol:
as §3

The test system of data set [6] is colorectal cancer cell line (HCT-15). Nature of the data set: Cancer proliferation inhibitory activity (SRB, GI50), HCT-15. In kind it is cell-based. The conditions noted are these: Homo sapiens, 48 hours. In short, it runs like this: as §3
The subject of data set [7] is prostate cancer cell line (PC-3). Nature of the data set: Cancer proliferation inhibitory activity (SRB, GI50), PC-3. In kind it is cell-based. To be noted: Homo sapiens, 48 hours. In short, it runs like this: as §3
Another data set addresses T2, HDAC 6 (Homo sapiens, UniProt Q9UBN7).
T2 sequence (Q9UBN7 1-1215): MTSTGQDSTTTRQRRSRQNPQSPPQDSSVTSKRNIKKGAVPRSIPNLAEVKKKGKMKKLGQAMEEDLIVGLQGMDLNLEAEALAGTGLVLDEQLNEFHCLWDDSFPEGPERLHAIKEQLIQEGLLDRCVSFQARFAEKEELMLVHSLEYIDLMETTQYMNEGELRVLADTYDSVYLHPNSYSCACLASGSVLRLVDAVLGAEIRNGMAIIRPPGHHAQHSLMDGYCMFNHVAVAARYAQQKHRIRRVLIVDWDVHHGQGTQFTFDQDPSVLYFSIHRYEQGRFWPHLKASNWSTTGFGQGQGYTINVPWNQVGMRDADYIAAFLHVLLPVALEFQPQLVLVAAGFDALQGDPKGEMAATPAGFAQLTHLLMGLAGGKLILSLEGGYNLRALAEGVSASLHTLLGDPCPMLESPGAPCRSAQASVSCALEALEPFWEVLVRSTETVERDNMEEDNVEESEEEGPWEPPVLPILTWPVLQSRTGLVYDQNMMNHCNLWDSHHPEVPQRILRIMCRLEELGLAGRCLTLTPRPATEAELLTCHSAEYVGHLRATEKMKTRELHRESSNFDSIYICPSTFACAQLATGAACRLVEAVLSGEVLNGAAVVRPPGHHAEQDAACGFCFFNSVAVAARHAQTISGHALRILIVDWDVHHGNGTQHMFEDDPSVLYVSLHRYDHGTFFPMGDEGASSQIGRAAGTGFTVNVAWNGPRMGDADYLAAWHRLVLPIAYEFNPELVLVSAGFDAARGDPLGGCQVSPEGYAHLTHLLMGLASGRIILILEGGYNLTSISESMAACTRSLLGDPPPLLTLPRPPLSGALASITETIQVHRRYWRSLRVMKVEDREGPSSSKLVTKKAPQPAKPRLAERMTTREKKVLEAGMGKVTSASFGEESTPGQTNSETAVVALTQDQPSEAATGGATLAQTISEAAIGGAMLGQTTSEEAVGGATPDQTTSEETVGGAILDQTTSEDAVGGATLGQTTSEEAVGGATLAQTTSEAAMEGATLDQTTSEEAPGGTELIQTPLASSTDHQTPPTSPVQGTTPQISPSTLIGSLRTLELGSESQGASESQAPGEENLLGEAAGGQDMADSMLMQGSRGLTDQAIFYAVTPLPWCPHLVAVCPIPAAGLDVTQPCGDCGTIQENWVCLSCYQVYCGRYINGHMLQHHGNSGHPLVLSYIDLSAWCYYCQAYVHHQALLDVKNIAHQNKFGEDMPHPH
Nature of the data set: HDAC enzyme fluorescence assay, HDAC 6. The conditions noted are these: recombinant HDAC enzyme, Boc-Lys(acetyl)-AMC. In kind it is biochemical. Here is the method: as §4

The nature of data set [8]: Body weight of mice in prostate cancer xenograft model. It is filed as in vivo. The conditions noted are these: 50 mg/kg (SAHA 100 mg/kg) once a day for 16 days. Here is the method: as §1, §2

Some results are limits rather than exact numbers.

Sequence of HDAC 1 (Q13547 whole entry, species assumed): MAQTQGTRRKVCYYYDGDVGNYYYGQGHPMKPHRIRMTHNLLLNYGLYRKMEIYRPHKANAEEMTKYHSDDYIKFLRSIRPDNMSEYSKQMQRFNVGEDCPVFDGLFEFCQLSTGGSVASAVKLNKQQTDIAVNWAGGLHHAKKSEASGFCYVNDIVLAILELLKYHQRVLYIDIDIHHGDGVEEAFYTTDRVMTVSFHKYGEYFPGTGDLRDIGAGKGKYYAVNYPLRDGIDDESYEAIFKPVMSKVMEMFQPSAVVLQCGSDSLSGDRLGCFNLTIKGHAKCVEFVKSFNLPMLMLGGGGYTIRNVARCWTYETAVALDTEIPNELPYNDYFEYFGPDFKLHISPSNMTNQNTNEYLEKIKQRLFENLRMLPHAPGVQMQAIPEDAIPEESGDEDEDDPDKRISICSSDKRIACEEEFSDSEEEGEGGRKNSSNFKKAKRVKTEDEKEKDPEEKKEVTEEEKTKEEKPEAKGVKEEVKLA

`O=C(CCCCCCC(=O)Nc1ccccc1)NO` [SAHA, reference compound]: the “tumor size / cancer proliferation (FIGS. 2, 3)” value in data set [1] was “cancer proliferation was inhibited”.

One may read the GI50 as the concentration at which growth is held to half of that of the control. By IC50 is commonly meant the concentration that gives 50% inhibition. For the molecule `COc1cccc([S+]([O-])C/C=C\SSCc2ccc(Cl)cc2)c1` (centres unmarked) [Example 24, (Z)-1-(4-chlorobenzyl)-2-(3-(3-methoxyphenylsulfinyl)prop-1-enyl)disulfane], the concentration for 50% growth inhibition (GI50) in [2] worked out at 5.8 µM; in data set [3], 5.27 µM; in [4] it was 5.82 µM; in data set [5], 3.57 µM; in data set [6] it was 3.65 µM; in [7], 5.97 µM. Moreover, the 50% inhibitory concentration (IC50) at HDAC 1 was 1.27 µM. The “Inhibitory activity (%) HDAC 8” value on HDAC 8 came out at 140.4%.

With `[O-][S+](C/C=C\SSCc1ccccc1)c1ccccc1` (centres unmarked) [Example 6, (Z)-1-benzyl-2-(3-(phenylsulfinyl)prop-1-enyl)disulfane], the concentration for 50% growth inhibition (GI50) came to 3.25 µM in data set [2]; 4.91 µM in data set [3]; 5.42 µM in data set [4]; 3.96 µM in data set [5]; 6.48 µM in data set [6]; 5.35 µM in data set [7]. Moreover, the IC50 on HDAC 1 came out at 3.89 µM; at HDAC 8 (recombinant HDAC enzyme, Boc-Lys(acetyl)-AMC, read-out: IC50 HDAC 8), 0.043 µM; on HDAC 6 it was 49.1 µM. Moreover, the “Inhibitory activity (%) HDAC 8” value on HDAC 8 is given as 129.1%.

`C=CCSS/C=C\C[S+]([O-])CC=C` (centres unmarked) [Comparative Example 2, Z-Ajoene, reference compound]: the GI50 in data set [2], in data set [3], in data set [4], in data set [5], in [6] and in data set [7] was above 10 µM in each case. Also, at HDAC 8, the “Inhibitory activity (%) HDAC 8” value was 52.5%. Further, the “changes in weight of mice / visible toxicity (FIG. 1)” value in [8] is recorded as “only normal weight increases were observed”. For the same molecule, in data set [1], the “tumor size / cancer proliferation (FIGS. 2, 3)” value is “cancer proliferation was inhibited”.

Regarding `C=CCSS/C=C/C[S+]([O-])CC=C` (centres unmarked) [Comparative Example 1, E-Ajoene, reference compound], the “Inhibitory activity (%) HDAC 8” value on HDAC 8 amounted to 73.4%. Besides, the “changes in weight of mice / visible toxicity (FIG. 1)” value in data set [8] is “only normal weight increases were observed”. In addition, in [1], the “tumor size / cancer proliferation (FIGS. 2, 3)” value is on record as “cancer proliferation was inhibited”.

For `C=CCSS/C=C/C[S+]([O-])c1ccc(OC)cc1` (centres unmarked) [Example 27, (E)-1-allyl-2-(3-(4-methoxyphenylsulfinyl)prop-1-enyl)disulfane], the 50% growth inhibitory concentration (GI50) in data set [2] was found to be 4.62 µM; in [3], 3.91 µM; in data set [4], 3.86 µM; in data set [5], 5.62 µM; in data set [6], 6.61 µM; in data set [7] it was 4.38 µM. The “Inhibitory activity (%) HDAC 8” value at HDAC 8 is 39.8%.

On to `[O-][S+](C/C=C\SSCc1ccc(Cl)cc1)c1ccccc1` (centres unmarked) [Example 12, (Z)-1-(4-chlorobenzyl)-2-(3-(phenylsulfinyl)prop-1-enyl)disulfane], for which the GI50 amounted to 3.24 µM in data set [2]; 3.51 µM in [3]; 2.95 µM in [4]; 2.26 µM in data set [5]; 5.48 µM in [6]; 4.99 µM in [7]. Moreover, the “Inhibitory activity (%) HDAC 8” value at HDAC 8 was 105.4%.

As for `COc1ccc(CSS/C=C/C[S+]([O-])c2ccccc2)cc1` (centres unmarked) [Example 9, (E)-1-(4-methoxybenzyl)-2-(3-(phenylsulfinyl)prop-1-enyl)disulfane], the GI50 in [2] was 1.43 µM; in [3], 1.45 µM; in data set [4], 2.94 µM; in data set [5], 1.54 µM; in data set [6], 3.03 µM; in [7] it was 2.72 µM. The “Inhibitory activity (%) HDAC 8” value on HDAC 8 was found to be 48.7%.

As for `[O-][S+](C/C=C/SSCc1ccc(Cl)cc1)c1ccccc1` (centres unmarked) [Example 11, (E)-1-(4-chlorobenzyl)-2-(3-(phenylsulfinyl)prop-1-enyl)disulfane], the GI50 in [2] amounted to 1.16 µM; in data set [3], 2 µM; in data set [4] it was 1.22 µM; in data set [5], 1.56 µM; in data set [6], 1.67 µM; in data set [7], 1.3 µM. Moreover, at HDAC 8, the “Inhibitory activity (%) HDAC 8” value is 74.4%.
